How the values were obtained:
Format in all cases: biochemical
Human DNA polymerase λ = molecular target: T1, Human DNA polymerase λ (Homo sapiens, UniProt Q9UGP5); assay: DNA polymerase assay, human pol λ
T1 construct: His tag; made in house; host or cells: E. coli (from the title of the cited method)
T1 sequence (Q9UGP5 1-575): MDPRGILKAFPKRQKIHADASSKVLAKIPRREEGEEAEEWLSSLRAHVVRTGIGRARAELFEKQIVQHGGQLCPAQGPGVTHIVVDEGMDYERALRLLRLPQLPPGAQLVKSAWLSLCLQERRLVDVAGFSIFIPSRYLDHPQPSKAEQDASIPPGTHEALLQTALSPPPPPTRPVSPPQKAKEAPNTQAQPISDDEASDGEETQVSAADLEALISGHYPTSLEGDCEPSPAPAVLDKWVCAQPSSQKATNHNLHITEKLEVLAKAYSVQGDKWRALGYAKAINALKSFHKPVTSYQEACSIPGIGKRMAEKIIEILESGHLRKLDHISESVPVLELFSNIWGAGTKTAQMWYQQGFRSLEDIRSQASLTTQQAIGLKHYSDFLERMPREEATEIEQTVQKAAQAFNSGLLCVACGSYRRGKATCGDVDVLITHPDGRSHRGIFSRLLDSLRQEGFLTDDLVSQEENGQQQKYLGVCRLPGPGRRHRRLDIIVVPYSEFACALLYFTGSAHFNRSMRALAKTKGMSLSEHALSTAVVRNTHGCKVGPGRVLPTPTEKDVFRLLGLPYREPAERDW
Text: (§1) Pol α was purified from calf thymus by immuno-affinity column chromatography as described by Tamai et al.. Recombinant rat pol β was purified from E. coli JMpβ5 as described by Date et al.. The human pol γ catalytic gene was cloned into pFastBac. Histidine-tagged enzyme was expressed using the BAC-TO-BAC HT Baculovirus Expression System according to the supplier's manual (LIFE TECHNOLOGIES, MD, USA) and purified using ProBoundresin (Invitrogen Japan, Tokyo, Japan). Human pols δ and ε were purified by the nuclear fractionation of human peripheral blood cancer cells (Molt-4) using the second subunit of pols δ and ε-conjugated affinity column chromatography, respectively. Recombinant human pols η and ι tagged with His6 at their C-terminal were expressed in SF9 insect cells using the baculovirus expression system, and were purified as described previously. A truncated form of pol κ (i.e., hDINB1DC) with 6 x His-tags attached at the C-terminal was overproduced using the BAC-to-BAC Baculovirus Expression System kit (GIBCO BRL, MD, USA) and purified as described previously. […]
(§2) For pols, poly(dA)/oligo(dT)12-18 (A/T = 2/1) and dTTP were used as the DNA template-primer and nucleotide (i.e., dNTP) substrate, respectively. […] Activity without the inhibitor was considered 100%, and the remaining activity at each concentration of the inhibitor was determined relative to this value. […]

Taq DNA polymerase = molecular target: T2, Taq DNA polymerase (Thermus aquaticus, UniProt P19821); assay: DNA polymerase assay, Taq pol; conditions: incubated at 74 °C
T2 construct: purchased Takara (Kyoto, Japan)
T2 sequence (P19821 whole entry): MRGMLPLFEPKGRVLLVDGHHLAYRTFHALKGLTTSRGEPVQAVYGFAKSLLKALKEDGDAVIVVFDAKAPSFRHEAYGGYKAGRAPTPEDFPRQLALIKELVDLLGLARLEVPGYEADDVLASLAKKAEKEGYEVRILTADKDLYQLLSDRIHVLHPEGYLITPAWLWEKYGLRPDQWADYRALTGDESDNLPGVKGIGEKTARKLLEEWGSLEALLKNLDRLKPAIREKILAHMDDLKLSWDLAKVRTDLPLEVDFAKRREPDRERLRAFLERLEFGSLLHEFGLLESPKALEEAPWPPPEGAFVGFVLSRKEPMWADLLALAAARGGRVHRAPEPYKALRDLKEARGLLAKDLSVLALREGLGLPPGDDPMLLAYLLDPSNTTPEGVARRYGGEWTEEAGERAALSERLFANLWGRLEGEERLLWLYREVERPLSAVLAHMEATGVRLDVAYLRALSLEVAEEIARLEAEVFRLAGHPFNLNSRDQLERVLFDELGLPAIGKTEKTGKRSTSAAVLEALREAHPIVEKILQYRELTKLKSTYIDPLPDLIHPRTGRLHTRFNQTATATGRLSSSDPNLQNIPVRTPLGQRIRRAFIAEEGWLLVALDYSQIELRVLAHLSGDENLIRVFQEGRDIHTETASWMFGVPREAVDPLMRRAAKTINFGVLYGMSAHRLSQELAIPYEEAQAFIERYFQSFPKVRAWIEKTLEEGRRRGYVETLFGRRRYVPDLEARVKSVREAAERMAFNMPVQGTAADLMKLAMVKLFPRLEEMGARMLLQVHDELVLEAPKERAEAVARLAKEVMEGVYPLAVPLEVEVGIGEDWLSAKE
Text: as §1, §2

T4 DNA polymerase = molecular target: T3, T4 DNA polymerase (Enterobacteria phage T4, UniProt P04415); assay: DNA polymerase assay, T4 pol
T3 construct: purchased Takara (Kyoto, Japan)
T3 sequence (P04415 1-898): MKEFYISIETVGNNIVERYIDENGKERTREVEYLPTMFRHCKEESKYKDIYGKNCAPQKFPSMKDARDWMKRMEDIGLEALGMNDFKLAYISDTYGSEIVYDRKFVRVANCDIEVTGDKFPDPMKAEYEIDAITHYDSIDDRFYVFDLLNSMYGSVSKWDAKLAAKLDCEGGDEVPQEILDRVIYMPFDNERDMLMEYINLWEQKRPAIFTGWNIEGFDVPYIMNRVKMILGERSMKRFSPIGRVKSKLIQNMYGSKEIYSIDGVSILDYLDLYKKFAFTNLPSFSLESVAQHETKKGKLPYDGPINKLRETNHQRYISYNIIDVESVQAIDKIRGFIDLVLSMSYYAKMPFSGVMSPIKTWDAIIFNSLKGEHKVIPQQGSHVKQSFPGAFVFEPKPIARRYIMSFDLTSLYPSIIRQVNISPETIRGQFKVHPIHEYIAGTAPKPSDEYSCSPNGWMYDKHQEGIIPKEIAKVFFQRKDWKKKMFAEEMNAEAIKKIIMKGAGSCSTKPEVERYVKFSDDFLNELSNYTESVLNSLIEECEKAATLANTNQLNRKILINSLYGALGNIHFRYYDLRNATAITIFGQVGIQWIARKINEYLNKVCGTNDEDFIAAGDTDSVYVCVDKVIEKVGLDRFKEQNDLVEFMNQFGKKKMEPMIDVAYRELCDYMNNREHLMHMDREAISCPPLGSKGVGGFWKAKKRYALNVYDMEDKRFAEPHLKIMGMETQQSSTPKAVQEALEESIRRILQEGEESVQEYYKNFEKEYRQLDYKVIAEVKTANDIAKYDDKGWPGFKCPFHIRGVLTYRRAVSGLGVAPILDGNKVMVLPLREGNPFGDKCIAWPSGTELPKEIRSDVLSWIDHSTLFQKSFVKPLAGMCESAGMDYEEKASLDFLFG
Text: as §1, §2

## CC1=CC[C@H]2C(C)(C)CCC[C@]2(C)[C@H]1CCCCCCCCCCCCCCCCC(=O)O (relative stereo) [compound 11, (1S*,4aS*,8aS*)-17-(1,4,4a,5,6,7,8,8a-octahydro-2,5,5,8a-tetramethylnaphthalen-1-yl)heptadecanoic acid]
Human DNA polymerase λ
  IC50: 4.67 ± 0.23 µM
Human DNA polymerase λ; with respect to both the DNA template-primer and the dNTP substrate
  Kinetic mode of inhibition: competitive
Taq DNA polymerase
  IC50: > 200 µM
T4 DNA polymerase
  IC50: > 200 µM

Reference: paper PMC6253949, “The Inhibitory Action of Kohamaic Acid A Derivatives on Mammalian DNA Polymerase β” (Molecules, 2008)
